Reference: PMC6407917, “Identification of GSK3186899/DDD853651 as a Preclinical Development Candidate for the Treatment of Visceral Leishmaniasis” (Journal of Medicinal Chemistry, 2018)
pIC50: −log10 of the molar value.

Legend:
Assay in all cases: biochemical
Parameters in all cases: species or system HEK293/K-562/placenta mixed human extract; Kinobeads chemoproteomic competition binding, quantified by TMT LC-MS/MS, dose response up to 20 uM
[1] = biological target: PRKAG1 (Homo sapiens, UniProt P54619)
Chain of PRKAG1 (P54619 whole entry): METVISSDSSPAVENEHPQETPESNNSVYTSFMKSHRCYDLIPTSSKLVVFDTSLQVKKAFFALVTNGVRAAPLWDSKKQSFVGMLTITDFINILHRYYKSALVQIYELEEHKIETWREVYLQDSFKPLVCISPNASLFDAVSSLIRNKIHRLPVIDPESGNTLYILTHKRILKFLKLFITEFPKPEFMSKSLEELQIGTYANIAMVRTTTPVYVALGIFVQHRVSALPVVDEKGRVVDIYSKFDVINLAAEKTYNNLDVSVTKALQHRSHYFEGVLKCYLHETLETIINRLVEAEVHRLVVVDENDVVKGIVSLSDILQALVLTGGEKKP

[2] = biological target: FES (Homo sapiens, UniProt P07332)
Chain of FES (P07332 whole entry): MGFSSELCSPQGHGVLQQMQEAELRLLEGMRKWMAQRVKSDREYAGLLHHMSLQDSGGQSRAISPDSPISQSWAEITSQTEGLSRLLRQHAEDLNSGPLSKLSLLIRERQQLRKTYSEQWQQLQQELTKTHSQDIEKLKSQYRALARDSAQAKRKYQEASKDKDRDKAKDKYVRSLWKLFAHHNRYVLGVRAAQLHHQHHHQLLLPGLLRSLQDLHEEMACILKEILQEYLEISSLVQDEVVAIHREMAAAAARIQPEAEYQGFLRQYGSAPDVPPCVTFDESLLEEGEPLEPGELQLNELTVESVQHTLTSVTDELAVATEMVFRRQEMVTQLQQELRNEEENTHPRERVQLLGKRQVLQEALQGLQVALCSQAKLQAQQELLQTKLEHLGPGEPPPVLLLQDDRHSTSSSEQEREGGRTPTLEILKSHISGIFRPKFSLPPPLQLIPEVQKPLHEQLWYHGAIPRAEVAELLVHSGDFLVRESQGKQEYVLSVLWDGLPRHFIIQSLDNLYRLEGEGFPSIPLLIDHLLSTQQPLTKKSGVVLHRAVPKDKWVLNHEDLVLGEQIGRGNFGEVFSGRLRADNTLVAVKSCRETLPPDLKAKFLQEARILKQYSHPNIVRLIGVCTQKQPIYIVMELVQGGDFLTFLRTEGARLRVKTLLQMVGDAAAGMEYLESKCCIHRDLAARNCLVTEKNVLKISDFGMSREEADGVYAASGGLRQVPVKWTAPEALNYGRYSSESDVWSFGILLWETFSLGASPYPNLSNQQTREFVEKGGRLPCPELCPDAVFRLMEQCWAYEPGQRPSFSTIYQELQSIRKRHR

[3] = biological target: MAP2K2 (Homo sapiens, UniProt P36507)
Chain of MAP2K2 (P36507 whole entry): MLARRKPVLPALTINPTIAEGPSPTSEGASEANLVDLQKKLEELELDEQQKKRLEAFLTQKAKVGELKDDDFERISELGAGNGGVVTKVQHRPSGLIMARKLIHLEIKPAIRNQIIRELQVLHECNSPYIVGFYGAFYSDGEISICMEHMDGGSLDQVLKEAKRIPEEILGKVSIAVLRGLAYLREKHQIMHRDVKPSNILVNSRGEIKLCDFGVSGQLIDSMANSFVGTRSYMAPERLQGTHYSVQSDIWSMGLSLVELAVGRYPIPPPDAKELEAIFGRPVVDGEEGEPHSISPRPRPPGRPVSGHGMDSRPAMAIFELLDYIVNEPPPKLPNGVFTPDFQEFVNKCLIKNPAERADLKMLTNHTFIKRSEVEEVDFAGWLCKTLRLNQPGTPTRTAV

[4] = biological target: EPHB1 (Homo sapiens, UniProt P54762)
[5] = biological target: PAK4 (Homo sapiens, UniProt O96013)
[6] = biological target: CDK7 (Homo sapiens, UniProt P50613)
[7] = biological target: MINK1 (Homo sapiens, UniProt Q8N4C8)
[8] = biological target: MERTK (Homo sapiens, UniProt Q12866)
[9] = biological target: PTK2B (Homo sapiens, UniProt Q14289)
Chain of PTK2B (Q14289 whole entry): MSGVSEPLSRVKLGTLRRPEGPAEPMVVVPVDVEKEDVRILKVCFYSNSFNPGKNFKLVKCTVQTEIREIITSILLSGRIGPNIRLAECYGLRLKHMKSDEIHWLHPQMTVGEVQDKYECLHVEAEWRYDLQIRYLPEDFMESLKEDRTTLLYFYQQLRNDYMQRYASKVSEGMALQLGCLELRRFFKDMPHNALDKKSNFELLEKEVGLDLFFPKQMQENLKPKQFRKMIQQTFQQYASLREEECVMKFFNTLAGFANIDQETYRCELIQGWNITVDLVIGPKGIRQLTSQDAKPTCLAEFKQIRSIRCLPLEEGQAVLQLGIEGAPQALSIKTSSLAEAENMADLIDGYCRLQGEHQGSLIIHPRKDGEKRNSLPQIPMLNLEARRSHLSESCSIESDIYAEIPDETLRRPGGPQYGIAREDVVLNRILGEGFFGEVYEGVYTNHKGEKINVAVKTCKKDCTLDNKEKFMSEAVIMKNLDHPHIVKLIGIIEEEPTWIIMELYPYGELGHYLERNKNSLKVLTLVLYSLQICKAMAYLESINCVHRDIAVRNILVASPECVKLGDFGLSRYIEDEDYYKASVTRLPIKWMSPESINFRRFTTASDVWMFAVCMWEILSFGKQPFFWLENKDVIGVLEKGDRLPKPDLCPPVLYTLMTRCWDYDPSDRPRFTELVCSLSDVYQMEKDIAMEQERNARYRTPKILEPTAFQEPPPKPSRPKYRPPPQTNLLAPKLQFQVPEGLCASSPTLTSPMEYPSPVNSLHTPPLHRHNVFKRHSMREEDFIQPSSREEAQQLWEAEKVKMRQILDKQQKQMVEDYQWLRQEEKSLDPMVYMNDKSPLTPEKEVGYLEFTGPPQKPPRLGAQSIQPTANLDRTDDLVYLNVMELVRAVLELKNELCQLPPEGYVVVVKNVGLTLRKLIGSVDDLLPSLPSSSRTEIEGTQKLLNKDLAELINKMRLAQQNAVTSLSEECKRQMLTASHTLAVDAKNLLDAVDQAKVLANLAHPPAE

[10] = biological target: RPS6KA1 (Homo sapiens, UniProt Q15418)
[11] = biological target: SRC (Homo sapiens, UniProt P12931)
[12] = biological target: MAPK9 (Homo sapiens, UniProt P45984)
[13] = biological target: CDC42BPG (Homo sapiens, UniProt Q6DT37)
[14] = biological target: CSNK1A1 (Homo sapiens, UniProt P48729)
[15] = biological target: PRKX (Homo sapiens, UniProt P51817)
[16] = biological target: DAPK1 (Homo sapiens, UniProt P53355)
Chain of DAPK1 (P53355 whole entry): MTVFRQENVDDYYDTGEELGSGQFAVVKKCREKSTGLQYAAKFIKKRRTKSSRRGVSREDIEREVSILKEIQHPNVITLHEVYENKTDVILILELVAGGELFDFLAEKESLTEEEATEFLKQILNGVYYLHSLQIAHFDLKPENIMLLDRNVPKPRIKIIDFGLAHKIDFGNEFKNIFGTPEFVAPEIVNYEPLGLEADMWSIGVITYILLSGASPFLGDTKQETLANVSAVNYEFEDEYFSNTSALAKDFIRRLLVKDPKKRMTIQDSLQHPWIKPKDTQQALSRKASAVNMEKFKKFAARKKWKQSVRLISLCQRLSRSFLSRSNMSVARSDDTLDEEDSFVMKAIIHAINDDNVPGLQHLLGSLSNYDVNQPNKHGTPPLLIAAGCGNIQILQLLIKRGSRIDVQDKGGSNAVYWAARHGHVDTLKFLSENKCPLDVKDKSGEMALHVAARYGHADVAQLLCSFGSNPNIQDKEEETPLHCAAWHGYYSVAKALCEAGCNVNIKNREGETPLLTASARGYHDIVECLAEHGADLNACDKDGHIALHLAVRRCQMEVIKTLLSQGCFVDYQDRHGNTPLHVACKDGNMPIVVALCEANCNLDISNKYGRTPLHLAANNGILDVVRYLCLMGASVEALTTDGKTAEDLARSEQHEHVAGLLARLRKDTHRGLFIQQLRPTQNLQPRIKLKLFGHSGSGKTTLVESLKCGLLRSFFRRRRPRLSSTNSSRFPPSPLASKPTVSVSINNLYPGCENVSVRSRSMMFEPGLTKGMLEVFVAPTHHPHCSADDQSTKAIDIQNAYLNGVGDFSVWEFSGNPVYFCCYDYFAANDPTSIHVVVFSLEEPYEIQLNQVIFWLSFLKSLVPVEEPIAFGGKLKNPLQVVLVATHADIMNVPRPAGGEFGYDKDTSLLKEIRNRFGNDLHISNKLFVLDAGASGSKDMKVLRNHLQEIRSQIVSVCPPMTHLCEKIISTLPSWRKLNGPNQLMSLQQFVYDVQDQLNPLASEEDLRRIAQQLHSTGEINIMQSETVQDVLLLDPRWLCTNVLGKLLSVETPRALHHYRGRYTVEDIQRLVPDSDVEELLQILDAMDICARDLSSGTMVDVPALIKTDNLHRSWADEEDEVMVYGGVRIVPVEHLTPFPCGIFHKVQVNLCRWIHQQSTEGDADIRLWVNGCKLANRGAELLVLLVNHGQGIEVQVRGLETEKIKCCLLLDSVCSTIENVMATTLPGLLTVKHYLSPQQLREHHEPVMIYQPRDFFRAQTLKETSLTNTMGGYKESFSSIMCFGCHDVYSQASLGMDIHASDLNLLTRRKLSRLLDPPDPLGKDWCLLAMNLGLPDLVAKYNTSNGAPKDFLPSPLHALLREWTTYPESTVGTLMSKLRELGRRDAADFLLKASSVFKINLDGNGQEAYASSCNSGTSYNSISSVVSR

[17] = biological target: CDKL5 (Homo sapiens, UniProt O76039)
[18] = biological target: MARK4 (Homo sapiens, UniProt Q96L34)
[19] = biological target: BTK (Homo sapiens, UniProt Q06187)
Chain of BTK (Q06187 whole entry): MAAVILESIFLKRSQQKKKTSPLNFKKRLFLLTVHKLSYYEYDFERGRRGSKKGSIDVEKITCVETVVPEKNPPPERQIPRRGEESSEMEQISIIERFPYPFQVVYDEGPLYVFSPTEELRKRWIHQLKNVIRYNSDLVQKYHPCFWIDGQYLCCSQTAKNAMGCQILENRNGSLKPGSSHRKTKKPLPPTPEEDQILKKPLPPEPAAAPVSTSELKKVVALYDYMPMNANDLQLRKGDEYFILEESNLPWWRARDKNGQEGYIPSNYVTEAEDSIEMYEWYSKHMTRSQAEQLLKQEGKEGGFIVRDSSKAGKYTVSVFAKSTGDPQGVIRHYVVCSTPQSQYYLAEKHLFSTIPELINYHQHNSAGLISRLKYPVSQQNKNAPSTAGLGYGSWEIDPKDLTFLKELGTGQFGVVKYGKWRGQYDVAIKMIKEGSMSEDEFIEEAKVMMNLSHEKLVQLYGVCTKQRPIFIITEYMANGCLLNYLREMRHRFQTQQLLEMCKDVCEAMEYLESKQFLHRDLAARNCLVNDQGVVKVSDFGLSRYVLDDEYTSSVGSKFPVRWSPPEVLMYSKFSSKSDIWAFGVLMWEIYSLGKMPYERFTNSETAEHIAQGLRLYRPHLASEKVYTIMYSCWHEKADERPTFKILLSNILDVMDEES

[20] = biological target: CSNK2B (Homo sapiens, UniProt P67870)
Chain of CSNK2B (P67870 whole entry): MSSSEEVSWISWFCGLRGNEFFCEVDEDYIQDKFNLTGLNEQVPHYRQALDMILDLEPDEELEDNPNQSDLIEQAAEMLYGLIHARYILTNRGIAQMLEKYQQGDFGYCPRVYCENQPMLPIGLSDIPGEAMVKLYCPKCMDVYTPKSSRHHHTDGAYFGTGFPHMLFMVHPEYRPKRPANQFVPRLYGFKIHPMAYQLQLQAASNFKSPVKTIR

[21] = biological target: BRSK2 (Homo sapiens, UniProt Q8IWQ3)

Measured: pIC50

COc1ccccc1-c1n[nH]c2nc(N[C@H]3CC[C@H](NS(=O)(=O)CCC(F)(F)F)CC3)nc(OC)c12 [compound 31, 3,3,3-Trifluoro-N-(trans-4-((4-methoxy-3-(2-methoxyphenyl)-1H-pyrazolo[3,4-d]pyrimidin-6-yl)amino)cyclohexyl)propane-1-sulfonamide]
≤ 4.70: all assays above
